What all share (format): functional, cell-based
In one assay the test system is A549. The assay is described as follows: Cytotoxicity against human A549 cells after 3 days. Particulars: A549, 72 h.
Another assay relates to HT-29. Put plainly: Cytotoxicity against human HT-29 cells after 3 days. Particulars: HT-29, 72 h.
A further assay relates to SK-MEL-28. The assay is described as follows: Cytotoxicity against human SK-MEL-28 cells after 3 days. Particulars: SK-MEL-28, 72 h.
The test system of a further assay is P388. Put plainly: Cytotoxicity against mouse P388 cells after 3 days. Particulars: P388, 72 h.

Usually IC50 stands for the midpoint of a concentration-inhibition curve.

As for `CC1=C(CC[C@@H]2[C@@]3(CC[C@@H]4OC(C)(C)C(=O)CC[C@]42C)CO3)[C@@]2(C)CCC(=O)C(C)(C)C2=C(O)C1=O` [SODWANONE G], the 50% inhibitory concentration (IC50) in the assay on A549 was 0.2 µM; with HT-29, 2 µM; in the assay on SK-MEL-28, 2 µM; with P388 it was 2 µM.
As to `CC1=C(CC[C@@H]2[C@H](C)CC[C@@H]3OC(C)(C)C(=O)CC[C@]32C)[C@@]2(C)CC[C@@H](O)C(C)(C)[C@@H]2CC1=O` [SODWANONE H], the 50% inhibitory concentration (IC50) with A549 is 0.02 µM; in the assay with HT-29, 10.5 µM; with SK-MEL-28 it was 10.5 µM; in the assay on P388 it was 10.5 µM.
`CC(C)C(=O)CC[C@@]1(C)[C@H]2CC[C@H](C)[C@]1(CC[C@@]1(C)[C@@H](C)CC[C@@H]3OC(C)(C)[C@]4(O)CC[C@@]31O4)O2` [SODWANONE I]: the IC50 in the assay with A549, in the assay with HT-29, in the assay on SK-MEL-28 and with P388 was 20 µM throughout.

These data come from ChEMBL document CHEMBL1150089, “Sodwanones G, H, and I, new cytotoxic triterpenes from a marine sponge” (J Nat Prod, 1995).
